The record followed here is patent publication US6586631B1, “Acetoacetarylamides” (Lonza, Ltd., priority 1998, dated 2003).

Molecules are shown by their SMILES.

This series can be described thus: Time to dissolve in 0.5 M aqueous sodium hydroxide solution at 20° C. Format: physicochemical. Here is the method:
The novel acetoacetarylamides dissolve in a 0.5 N sodium hydroxide solution at 20° C. in from approximately half to one third of the time required by a dried acetoacetarylide prepared according to the prior art.
Water was introduced into a 1.5 l bench stirrer and adjusted to a temperature of 20° C. The stirrer was then rendered inert using nitrogen. Using two pumps, 133 g of aniline and 124 g of diketene were metered in over the course of 10 minutes. The addition of aniline was delayed by about 30 sec. At the end of the metered addition, the reaction temperature increased to 65° to 70° C. The mixture was then allowed to react for a further 30 minutes, and the reaction temperature dropped to 60° C. Vacuum cooling (450 to 120 mbar) was used to cool the mixture to 40° C., and the liquid acetoacetanilide began to crystallize, as a result of which the temperature immediately rose to about 58° C. The mixture was then cooled to 15° C. At 15° C., the solid product was centrifuged off, washed with 50 ml of water and dried at 50° C. under reduced pressure for 12 h. This method gave acetoacetanilide having a content of >99.5 percent (with a residual moisture content of <0.1 percent). The yield in terms of aniline was 97.1 percent, and in terms of diketene was 92.0 percent. A crystalline product having an average particle size of 450 to 500 μm was obtained. 50 g of the resulting acetoacetanilide (dry, 99.5 percent, water content <0.1 percent) dissolved completely at 20° C. in 500 ml of a 0.5 M aqueous sodium hydroxide solution in 25 minutes.
This gave white flakes having an average thickness of 0.08 mm and an average diameter of from 0.5 mm to […]. 55.6 g of the resulting acetoacetanilide (moist, content of acetoacetanilide 89.5 percent, water content 10 percent) dissolved completely at 20° C. in 500 ml of a 0.5 M aqueous sodium hydroxide solution in about 15 minutes.

[1] abbreviates: 55.6 g (moist, content 89.5 percent, water content 10 percent) in 500 ml of 0.5 M aqueous sodium hydroxide solution.
Setting [2] is: 60 g moist pastilles in 500 ml of 0.5 M aqueous sodium hydroxide solution.
[3] abbreviates: 60 g moist pastilles in 700 ml of 0.5 M aqueous sodium hydroxide solution.

On to `CC(=O)CC(=O)Nc1ccccc1` [Example 1, Acetoacetanilide, reference compound], for which the “time to dissolve completely” value (50 g (dry, 99.5 percent, water content <0.1 percent) in 500 ml of 0.5 M aqueous sodium hydroxide solution) is 25 min. With `CC(=O)CC(=O)Nc1ccccc1` [Example 4, Acetoacetanilide], the “time to dissolve completely” value under setting [1] was “about 15 minutes”.

For the compound `CC(=O)CC(=O)Nc1ccccc1` [Example 5, Acetoacetanilide], under setting [1], the “time to dissolve completely” value is on record as “about 17 minutes”.

On to `CC(=O)CC(=O)Nc1ccccc1` [Example 6, Acetoacetanilide], for which, under setting [1], the “time to dissolve completely” value is “about 17 minutes”. Consider `COc1ccccc1NC(=O)CC(C)=O` [Example 7, o-acetoacetanisidide], for which, under setting [2], the time to dissolve entry is listed as “about 20 minutes”.

Consider `CC(=O)CC(=O)Nc1ccccc1C` [Example 8, o-acetoacetotoluidide], for which the time to dissolve result under setting [3] is “about 19 minutes”.

Regarding `CC(=O)CC(=O)Nc1ccc(C)cc1C` [Example 9, m-acetoacetoxylidide], the time to dissolve entry under setting [3] is “about 18 minutes”. For `CC(=O)CC(=O)Nc1ccccc1Cl` [Example 10, o-Acetoacetochloroanilide], under setting [2], the time to dissolve entry is given as “about 18 minutes”.
